Values belong to the molecule of their own block, whether it stands above or below them.
Key:
Experiment in all cases: KINOMEscan competition binding
Settings in all cases: compound 10.0 µM
SIK1 (human) = SIK1 (human) (UniProt P57059)
LATS1 (human) = LATS1 (human) (UniProt O95835)
NTRK3 (human) = NTRK3 (human) (UniProt Q16288)
[1] = test system: ABL1 (human), P00519 [F317I]
AURKA (human) = AURKA (human) (UniProt O14965)
PRKG1 (human) = PRKG1 (human) (UniProt Q13976)
RET (human) = RET (human) (UniProt P07949)
CSNK1G2 (human) = CSNK1G2 (human) (UniProt P78368)
PKMYT1 (human) = PKMYT1 (human) (UniProt Q99640)
CDK3 (human) = CDK3 (human) (UniProt Q00526)
GSK3B (human) = GSK3B (human) (UniProt P49841)
TESK1 (human) = TESK1 (human) (UniProt Q15569)
[2] = test system: ABL1 (human), P00519 [E255K]
SYK (human) = SYK (human) (UniProt P43405)
SLK (human) = SLK (human) (UniProt Q9H2G2)
MAPK12 (human) = MAPK12 (human) (UniProt P53778)
RPS6KA1 KD1 (human) = RPS6KA1 KD1 (human) (UniProt Q15418)
CDK14 (human) = CDK14 (human) (UniProt O94921)
IKBKB (human) = IKBKB (human) (UniProt O14920)
FGR (human) = FGR (human) (UniProt P09769)
INSR (human) = INSR (human) (UniProt P06213)
TNNI3K (human) = TNNI3K (human) (UniProt Q59H18)
MAPK1 (human) = MAPK1 (human) (UniProt P28482)
TEK (human) = TEK (human) (UniProt Q02763)
STK35 (human) = STK35 (human) (UniProt Q8TDR2)
SRMS (human) = SRMS (human) (UniProt Q9H3Y6)
EPHA5 (human) = EPHA5 (human) (UniProt P54756)
MAPK14 (human) = MAPK14 (human) (UniProt Q16539)
BMPR2 (human) = BMPR2 (human) (UniProt Q13873)
CDC42BPB (human) = CDC42BPB (human) (UniProt Q9Y5S2)
ABL2 (human) = ABL2 (human) (UniProt P42684)
[3] = test system: EGFR (human), P00533 [P753S; 747-752 del]
[4] = target: TYK2 JH1 catalytic (human) (UniProt P29597)
EPHB1 (human) = EPHB1 (human) (UniProt P54762)
MAP3K10 (human) = MAP3K10 (human) (UniProt Q02779)
CAMK2A (human) = CAMK2A (human) (UniProt Q9UQM7)
PRKCQ (human) = PRKCQ (human) (UniProt Q04759)
SIK2 (human) = SIK2 (human) (UniProt Q9H0K1)
MAP3K9 (human) = MAP3K9 (human) (UniProt P80192)
MAP3K4 (human) = MAP3K4 (human) (UniProt Q9Y6R4)
[5] = target: JAK1 JH1 catalytic (human) (UniProt P23458)
MAPK10 (human) = MAPK10 (human) (UniProt P53779)

Chain of PRKG1 (human) (Q13976 whole entry, looked up): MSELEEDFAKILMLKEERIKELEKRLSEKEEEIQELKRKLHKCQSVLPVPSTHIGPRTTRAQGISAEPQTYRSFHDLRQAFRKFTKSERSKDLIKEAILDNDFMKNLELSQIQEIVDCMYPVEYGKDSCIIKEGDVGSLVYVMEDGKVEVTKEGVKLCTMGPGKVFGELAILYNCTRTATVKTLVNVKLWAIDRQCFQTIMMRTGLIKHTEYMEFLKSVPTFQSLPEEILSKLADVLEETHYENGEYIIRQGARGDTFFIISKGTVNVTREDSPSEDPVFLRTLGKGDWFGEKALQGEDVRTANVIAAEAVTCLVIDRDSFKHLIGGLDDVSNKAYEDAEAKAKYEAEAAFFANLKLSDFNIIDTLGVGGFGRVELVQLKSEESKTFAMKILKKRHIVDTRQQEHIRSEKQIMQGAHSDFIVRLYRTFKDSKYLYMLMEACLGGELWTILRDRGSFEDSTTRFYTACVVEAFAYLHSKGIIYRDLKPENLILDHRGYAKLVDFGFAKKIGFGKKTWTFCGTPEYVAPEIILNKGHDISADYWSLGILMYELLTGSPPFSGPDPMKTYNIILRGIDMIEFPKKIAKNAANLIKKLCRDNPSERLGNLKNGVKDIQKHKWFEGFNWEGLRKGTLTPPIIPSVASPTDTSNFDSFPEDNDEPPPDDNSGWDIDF
Chain of PRKCQ (human) (Q04759 whole entry, looked up): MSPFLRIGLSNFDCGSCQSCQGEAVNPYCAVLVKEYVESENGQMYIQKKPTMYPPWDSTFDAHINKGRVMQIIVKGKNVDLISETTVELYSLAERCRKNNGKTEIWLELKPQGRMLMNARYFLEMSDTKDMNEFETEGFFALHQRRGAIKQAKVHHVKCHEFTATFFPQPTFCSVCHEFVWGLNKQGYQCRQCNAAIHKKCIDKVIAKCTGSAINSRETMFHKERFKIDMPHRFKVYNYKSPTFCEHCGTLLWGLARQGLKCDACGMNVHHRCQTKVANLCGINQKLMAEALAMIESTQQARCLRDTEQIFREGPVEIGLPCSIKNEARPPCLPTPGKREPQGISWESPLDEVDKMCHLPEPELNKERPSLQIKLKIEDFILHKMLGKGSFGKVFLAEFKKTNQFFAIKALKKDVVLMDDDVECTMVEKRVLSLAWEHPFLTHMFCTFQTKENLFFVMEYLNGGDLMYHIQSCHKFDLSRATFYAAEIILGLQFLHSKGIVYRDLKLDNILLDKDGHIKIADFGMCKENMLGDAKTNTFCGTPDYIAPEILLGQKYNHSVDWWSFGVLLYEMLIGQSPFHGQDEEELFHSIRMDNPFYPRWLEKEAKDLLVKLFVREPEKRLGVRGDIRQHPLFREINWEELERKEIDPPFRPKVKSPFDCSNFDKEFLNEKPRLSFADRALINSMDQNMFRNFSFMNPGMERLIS
Chain of TYK2 JH1 catalytic (human) (P29597 whole entry, looked up): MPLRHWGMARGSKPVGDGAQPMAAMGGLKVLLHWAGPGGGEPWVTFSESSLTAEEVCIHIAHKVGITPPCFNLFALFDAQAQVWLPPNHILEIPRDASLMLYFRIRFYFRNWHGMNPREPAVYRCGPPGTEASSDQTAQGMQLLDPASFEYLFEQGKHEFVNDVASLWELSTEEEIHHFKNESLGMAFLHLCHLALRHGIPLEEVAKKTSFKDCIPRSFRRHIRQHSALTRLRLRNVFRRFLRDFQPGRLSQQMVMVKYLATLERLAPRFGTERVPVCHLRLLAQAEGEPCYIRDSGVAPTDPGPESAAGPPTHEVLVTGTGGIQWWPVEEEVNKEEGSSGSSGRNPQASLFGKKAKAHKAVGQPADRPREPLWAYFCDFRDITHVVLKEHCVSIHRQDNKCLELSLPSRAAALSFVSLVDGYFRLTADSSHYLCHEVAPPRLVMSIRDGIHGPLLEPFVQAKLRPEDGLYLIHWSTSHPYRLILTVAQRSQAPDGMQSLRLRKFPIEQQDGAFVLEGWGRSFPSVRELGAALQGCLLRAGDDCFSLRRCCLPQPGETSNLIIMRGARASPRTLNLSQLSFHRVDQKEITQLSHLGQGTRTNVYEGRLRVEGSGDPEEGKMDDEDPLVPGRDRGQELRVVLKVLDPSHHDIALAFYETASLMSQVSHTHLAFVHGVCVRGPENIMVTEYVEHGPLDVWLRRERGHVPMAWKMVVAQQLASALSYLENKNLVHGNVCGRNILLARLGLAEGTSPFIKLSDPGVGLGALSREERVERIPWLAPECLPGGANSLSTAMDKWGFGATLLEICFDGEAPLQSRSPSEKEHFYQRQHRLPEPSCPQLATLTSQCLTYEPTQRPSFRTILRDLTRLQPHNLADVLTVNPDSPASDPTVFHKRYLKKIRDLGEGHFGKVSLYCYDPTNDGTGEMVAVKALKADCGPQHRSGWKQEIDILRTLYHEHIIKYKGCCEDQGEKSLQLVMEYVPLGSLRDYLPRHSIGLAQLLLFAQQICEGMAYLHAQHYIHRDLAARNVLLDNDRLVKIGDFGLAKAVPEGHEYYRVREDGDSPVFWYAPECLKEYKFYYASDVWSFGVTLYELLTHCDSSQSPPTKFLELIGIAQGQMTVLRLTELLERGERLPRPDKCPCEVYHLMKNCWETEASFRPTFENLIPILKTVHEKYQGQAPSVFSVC
Chain of MAP3K10 (human) (Q02779 whole entry, looked up): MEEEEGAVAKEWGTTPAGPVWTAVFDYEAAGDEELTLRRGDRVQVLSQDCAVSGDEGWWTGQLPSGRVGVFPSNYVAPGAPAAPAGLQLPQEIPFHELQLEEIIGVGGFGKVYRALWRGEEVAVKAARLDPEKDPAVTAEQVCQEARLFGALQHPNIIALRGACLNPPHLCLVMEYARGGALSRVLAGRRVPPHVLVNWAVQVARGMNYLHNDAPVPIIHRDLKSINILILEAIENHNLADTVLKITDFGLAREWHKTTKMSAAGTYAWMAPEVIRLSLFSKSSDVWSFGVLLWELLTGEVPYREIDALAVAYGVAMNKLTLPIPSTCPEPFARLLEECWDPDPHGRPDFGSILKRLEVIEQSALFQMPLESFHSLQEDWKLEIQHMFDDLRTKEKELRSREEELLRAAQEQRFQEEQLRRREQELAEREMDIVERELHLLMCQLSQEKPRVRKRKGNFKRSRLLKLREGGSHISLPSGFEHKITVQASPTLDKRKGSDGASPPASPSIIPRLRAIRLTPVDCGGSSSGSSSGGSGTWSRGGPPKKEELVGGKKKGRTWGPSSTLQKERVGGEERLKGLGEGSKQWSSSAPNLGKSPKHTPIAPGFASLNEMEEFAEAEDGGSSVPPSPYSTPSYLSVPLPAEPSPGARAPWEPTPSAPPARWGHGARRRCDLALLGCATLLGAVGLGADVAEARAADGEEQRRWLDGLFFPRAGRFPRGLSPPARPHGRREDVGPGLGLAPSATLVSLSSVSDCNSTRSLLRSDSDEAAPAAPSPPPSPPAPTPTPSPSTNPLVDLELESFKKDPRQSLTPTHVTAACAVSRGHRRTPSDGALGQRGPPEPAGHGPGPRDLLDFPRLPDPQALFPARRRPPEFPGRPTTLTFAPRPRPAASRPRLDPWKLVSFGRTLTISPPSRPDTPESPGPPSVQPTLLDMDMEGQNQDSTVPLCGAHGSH
Chain of JAK1 JH1 catalytic (human) (P23458 whole entry, looked up): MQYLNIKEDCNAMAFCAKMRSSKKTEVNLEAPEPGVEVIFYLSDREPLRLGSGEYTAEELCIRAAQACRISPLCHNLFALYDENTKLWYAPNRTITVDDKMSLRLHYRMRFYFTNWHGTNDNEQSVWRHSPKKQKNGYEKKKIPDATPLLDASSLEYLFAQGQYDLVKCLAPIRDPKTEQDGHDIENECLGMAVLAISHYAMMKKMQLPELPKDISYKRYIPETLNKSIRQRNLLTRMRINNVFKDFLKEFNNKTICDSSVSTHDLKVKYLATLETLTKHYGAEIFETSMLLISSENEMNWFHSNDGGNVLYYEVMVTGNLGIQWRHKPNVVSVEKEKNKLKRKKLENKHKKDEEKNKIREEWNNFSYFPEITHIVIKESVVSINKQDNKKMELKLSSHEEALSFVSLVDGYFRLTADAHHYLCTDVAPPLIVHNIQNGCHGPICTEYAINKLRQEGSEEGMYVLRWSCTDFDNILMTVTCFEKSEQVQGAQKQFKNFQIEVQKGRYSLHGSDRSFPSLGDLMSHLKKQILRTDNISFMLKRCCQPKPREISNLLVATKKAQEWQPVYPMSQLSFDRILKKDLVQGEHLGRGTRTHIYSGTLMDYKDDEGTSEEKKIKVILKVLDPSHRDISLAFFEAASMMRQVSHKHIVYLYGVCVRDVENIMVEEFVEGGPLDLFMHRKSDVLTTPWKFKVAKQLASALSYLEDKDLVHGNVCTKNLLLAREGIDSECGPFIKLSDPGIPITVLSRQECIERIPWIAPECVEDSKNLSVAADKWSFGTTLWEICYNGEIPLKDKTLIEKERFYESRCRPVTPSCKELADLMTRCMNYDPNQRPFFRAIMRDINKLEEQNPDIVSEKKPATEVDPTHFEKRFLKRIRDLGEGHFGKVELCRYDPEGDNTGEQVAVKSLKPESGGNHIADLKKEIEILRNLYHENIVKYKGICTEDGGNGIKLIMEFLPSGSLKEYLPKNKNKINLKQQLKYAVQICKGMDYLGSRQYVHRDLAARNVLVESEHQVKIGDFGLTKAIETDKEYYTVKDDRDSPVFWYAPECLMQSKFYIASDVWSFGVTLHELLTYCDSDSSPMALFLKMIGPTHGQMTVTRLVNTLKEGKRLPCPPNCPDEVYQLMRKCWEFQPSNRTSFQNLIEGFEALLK
Chain of GSK3B (human) (P49841 whole entry, looked up): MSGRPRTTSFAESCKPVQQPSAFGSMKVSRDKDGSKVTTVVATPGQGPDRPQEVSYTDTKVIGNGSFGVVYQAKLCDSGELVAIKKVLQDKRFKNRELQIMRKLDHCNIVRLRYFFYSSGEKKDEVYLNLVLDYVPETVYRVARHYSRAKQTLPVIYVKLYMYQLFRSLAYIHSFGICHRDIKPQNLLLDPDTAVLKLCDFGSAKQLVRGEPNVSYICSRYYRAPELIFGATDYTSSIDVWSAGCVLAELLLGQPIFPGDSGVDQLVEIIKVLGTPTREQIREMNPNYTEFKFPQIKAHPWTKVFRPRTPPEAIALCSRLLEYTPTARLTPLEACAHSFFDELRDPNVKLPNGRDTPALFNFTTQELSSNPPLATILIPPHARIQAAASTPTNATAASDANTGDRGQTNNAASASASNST

kinase still bound, per cent of control (SIK1 (human)): 100%
kinase still bound, per cent of control (LATS1 (human)): 74%
kinase still bound, per cent of control (NTRK3 (human)): 72%
kinase still bound, per cent of control [1]: 100%
kinase still bound, per cent of control (AURKA (human)): 100%
kinase still bound, per cent of control (PRKG1 (human)): 100%
kinase still bound, per cent of control (RET (human)): 100%
kinase still bound, per cent of control (CSNK1G2 (human)): 100%
kinase still bound, per cent of control (PKMYT1 (human)): 100%
kinase still bound, per cent of control (CDK3 (human)): 100%
kinase still bound, per cent of control (GSK3B (human)): 94%
kinase still bound, per cent of control (TESK1 (human)): 100%
kinase still bound, per cent of control [2]: 100%
kinase still bound, per cent of control (SYK (human)): 100%
kinase still bound, per cent of control (SLK (human)): 100%
kinase still bound, per cent of control (MAPK12 (human)): 100%
kinase still bound, per cent of control (RPS6KA1 KD1 (human)): 100%
kinase still bound, per cent of control (CDK14 (human)): 100%
kinase still bound, per cent of control (IKBKB (human)): 100%
kinase still bound, per cent of control (FGR (human)): 100%
kinase still bound, per cent of control (INSR (human)): 95%
kinase still bound, per cent of control (TNNI3K (human)): 100%
kinase still bound, per cent of control (MAPK1 (human)): 100%
kinase still bound, per cent of control (TEK (human)): 97%
kinase still bound, per cent of control (STK35 (human)): 100%
kinase still bound, per cent of control (SRMS (human)): 84%
kinase still bound, per cent of control (EPHA5 (human)): 100%
kinase still bound, per cent of control (MAPK14 (human)): 100%
kinase still bound, per cent of control (BMPR2 (human)): 100%
kinase still bound, per cent of control (CDC42BPB (human)): 100%
kinase still bound, per cent of control (ABL2 (human)): 100%
kinase still bound, per cent of control [3]: 100%
kinase still bound, per cent of control [4]: 38%
kinase still bound, per cent of control (EPHB1 (human)): 100%
kinase still bound, per cent of control (MAP3K10 (human)): 100%
kinase still bound, per cent of control (CAMK2A (human)): 100%
kinase still bound, per cent of control (PRKCQ (human)): 100%
kinase still bound, per cent of control (SIK2 (human)): 89%
kinase still bound, per cent of control (MAP3K9 (human)): 100%
kinase still bound, per cent of control (MAP3K4 (human)): 85%
kinase still bound, per cent of control [5]: 100%
kinase still bound, per cent of control (MAPK10 (human)): 100%
SMILES: CN1C(=O)c2ccccc2N(C)c2nc(NS(=O)(=O)c3ccc(N)cc3)ncc21

kinase still bound, per cent of control (SIK1 (human)): 100%
kinase still bound, per cent of control (LATS1 (human)): 94%
kinase still bound, per cent of control (NTRK3 (human)): 79%
kinase still bound, per cent of control [1]: 67%
kinase still bound, per cent of control (AURKA (human)): 76%
kinase still bound, per cent of control (PRKG1 (human)): 100%
kinase still bound, per cent of control (RET (human)): 100%
kinase still bound, per cent of control (CSNK1G2 (human)): 100%
kinase still bound, per cent of control (PKMYT1 (human)): 96%
kinase still bound, per cent of control (CDK3 (human)): 96%
kinase still bound, per cent of control (GSK3B (human)): 82%
kinase still bound, per cent of control (TESK1 (human)): 76%
kinase still bound, per cent of control [2]: 100%
kinase still bound, per cent of control (SYK (human)): 99%
kinase still bound, per cent of control (SLK (human)): 100%
kinase still bound, per cent of control (MAPK12 (human)): 78%
kinase still bound, per cent of control (RPS6KA1 KD1 (human)): 97%
kinase still bound, per cent of control (CDK14 (human)): 100%
kinase still bound, per cent of control (IKBKB (human)): 75%
kinase still bound, per cent of control (FGR (human)): 100%
kinase still bound, per cent of control (INSR (human)): 52%
kinase still bound, per cent of control (TNNI3K (human)): 100%
kinase still bound, per cent of control (MAPK1 (human)): 100%
kinase still bound, per cent of control (TEK (human)): 100%
kinase still bound, per cent of control (STK35 (human)): 100%
kinase still bound, per cent of control (SRMS (human)): 100%
kinase still bound, per cent of control (EPHA5 (human)): 99%
kinase still bound, per cent of control (MAPK14 (human)): 100%
kinase still bound, per cent of control (BMPR2 (human)): 100%
kinase still bound, per cent of control (CDC42BPB (human)): 100%
kinase still bound, per cent of control (ABL2 (human)): 98%
kinase still bound, per cent of control [3]: 100%
kinase still bound, per cent of control [4]: 94%
kinase still bound, per cent of control (EPHB1 (human)): 100%
kinase still bound, per cent of control (MAP3K10 (human)): 100%
kinase still bound, per cent of control (CAMK2A (human)): 75%
kinase still bound, per cent of control (PRKCQ (human)): 83%
kinase still bound, per cent of control (SIK2 (human)): 89%
kinase still bound, per cent of control (MAP3K9 (human)): 100%
kinase still bound, per cent of control (MAP3K4 (human)): 100%
kinase still bound, per cent of control [5]: 53%
kinase still bound, per cent of control (MAPK10 (human)): 85%
SMILES: COc1cc(N2CCN(C)CC2)ccc1Nc1ncc2c(n1)N(C)c1ccccc1N(C)C2=O

kinase still bound, per cent of control (SIK1 (human)): 88%
kinase still bound, per cent of control (LATS1 (human)): 100%
kinase still bound, per cent of control (NTRK3 (human)): 93%
kinase still bound, per cent of control [1]: 88%
kinase still bound, per cent of control (AURKA (human)): 23%
kinase still bound, per cent of control (PRKG1 (human)): 85%
kinase still bound, per cent of control (RET (human)): 100%
kinase still bound, per cent of control (CSNK1G2 (human)): 100%
kinase still bound, per cent of control (PKMYT1 (human)): 69%
kinase still bound, per cent of control (CDK3 (human)): 97%
kinase still bound, per cent of control (GSK3B (human)): 91%
kinase still bound, per cent of control (TESK1 (human)): 100%
kinase still bound, per cent of control [2]: 90%
kinase still bound, per cent of control (SYK (human)): 100%
kinase still bound, per cent of control (SLK (human)): 95%
kinase still bound, per cent of control (MAPK12 (human)): 67%
kinase still bound, per cent of control (RPS6KA1 KD1 (human)): 94%
kinase still bound, per cent of control (CDK14 (human)): 91%
kinase still bound, per cent of control (IKBKB (human)): 92%
kinase still bound, per cent of control (FGR (human)): 93%
kinase still bound, per cent of control (INSR (human)): 53%
kinase still bound, per cent of control (TNNI3K (human)): 100%
kinase still bound, per cent of control (MAPK1 (human)): 75%
kinase still bound, per cent of control (TEK (human)): 98%
kinase still bound, per cent of control (STK35 (human)): 95%
kinase still bound, per cent of control (SRMS (human)): 87%
kinase still bound, per cent of control (EPHA5 (human)): 88%
kinase still bound, per cent of control (MAPK14 (human)): 61%
kinase still bound, per cent of control (BMPR2 (human)): 100%
kinase still bound, per cent of control (CDC42BPB (human)): 94%
kinase still bound, per cent of control (ABL2 (human)): 96%
kinase still bound, per cent of control [3]: 91%
kinase still bound, per cent of control [4]: 64%
kinase still bound, per cent of control (EPHB1 (human)): 99%
kinase still bound, per cent of control (MAP3K10 (human)): 100%
kinase still bound, per cent of control (CAMK2A (human)): 80%
kinase still bound, per cent of control (PRKCQ (human)): 97%
kinase still bound, per cent of control (SIK2 (human)): 100%
kinase still bound, per cent of control (MAP3K9 (human)): 96%
kinase still bound, per cent of control (MAP3K4 (human)): 84%
kinase still bound, per cent of control [5]: 100%
kinase still bound, per cent of control (MAPK10 (human)): 42%
SMILES: COc1cc(N2CCC(O)CC2)ccc1Nc1ncc2c(n1)N1CCc3cccc(c31)C(=O)N2C

Reference: the kinase profiling compilation of Christmann-Franck et al. (2016)
